Here are results for 26 molecules from patent US11739070B2, “C5A receptor modulators” (IDORSIA PHARMACEUTICALS LTD, priority 2018, dated 2023).

Molecules are shown by their SMILES.

For this assay, the target named is T1, C5AR1 (Homo sapiens, UniProt P21730).
T1 construct: host or cells: CHO-K1
T1 sequence (P21730 1-350): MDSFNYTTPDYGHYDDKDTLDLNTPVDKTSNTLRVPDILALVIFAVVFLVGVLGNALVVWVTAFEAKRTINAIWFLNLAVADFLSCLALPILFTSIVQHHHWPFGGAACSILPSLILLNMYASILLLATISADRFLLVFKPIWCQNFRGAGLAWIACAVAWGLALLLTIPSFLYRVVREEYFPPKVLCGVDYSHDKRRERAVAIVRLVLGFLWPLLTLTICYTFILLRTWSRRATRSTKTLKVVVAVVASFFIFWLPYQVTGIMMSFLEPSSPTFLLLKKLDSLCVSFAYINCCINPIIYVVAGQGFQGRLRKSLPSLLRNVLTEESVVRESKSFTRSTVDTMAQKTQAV
Description: hC5a DISCO IC50 assay (PathHunter beta-arrestin, antagonist mode). Type of assay: cell-based. The settings on record: CHO-K1 C5AR1 beta-arrestin cell line; antagonist vs 1-10 nM C5a agonist; geometric mean values; read-out: C5aR IC50. A digest of the protocol: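 Antagonist added first, then 1-10 nM C5a agonist; cells incubated 1.5 h at 37 °C. Beta-arrestin signal developed with PathHunter detection reagent, 45 min at RT. IC50 in nmol/l from serial antagonist dilutions, reported as geometric mean of several measurements.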
What is called IC50 is the point on the concentration scale where inhibition reaches its midpoint. With `COc1cccc2c1n(Cc1ccccc1C(F)(F)F)c(=O)n2[C@@H]1CCN(c2c(F)cccc2CN2CCC(OC)C2)C1` (stereo partly drawn) [Example 138, 1-{(R)-1-[2-Fluoro-6-(3-methoxy-pyrrolidin-1-ylmethyl)-phenyl]-pyrrolidin-3-yl}-4-methoxy-3-(2-trifluoromethyl-benzyl)-1,3-dihydro-benzoimidazol-2-one], the IC50 stood at 156 nM.

As to `COc1cccc2c1n(Cc1ccccc1C(F)(F)F)c(=O)n2[C@@H]1CCN(C(C)C)C1` [Example 32, 1-((R)-1-Isopropyl-pyrrolidin-3-yl)-4-methoxy-3-(2-trifluoromethyl-benzyl)-1,3-dihydro-benzoimidazol-2-one], the IC50 came to 642 nM.

Consider `COc1cccc2c1n(Cc1ccccc1C(F)(F)F)c(=O)n2[C@@H]1CCN(C(=O)OC2(C)COC2)C1` [Example 70, (R)-3-[4-Methoxy-2-oxo-3-(2-trifluoromethyl-benzyl)-2,3-dihydro-benzoimidazol-1-yl]-pyrrolidine-1-carboxylic acid 3-methyl-oxetan-3-yl ester], for which the IC50 worked out at 538 nM.

Consider `COc1cccc2c1n(Cc1cccnc1C(F)(F)F)c(=O)n2[C@@H]1CCN(c2c(C)cccc2F)C1` [Example 195, 1-[(R)-1-(2-Fluoro-6-methyl-phenyl)-pyrrolidin-3-yl]-4-methoxy-3-(2-trifluoromethyl-pyridin-3-ylmethyl)-1,3-dihydro-benzoimidazol-2-one], for which the IC50 is 20 nM.

For `COc1ccnc(OC)c1N1CCC(n2c(=O)n(Cc3ccccc3C(F)(F)F)c3c(OC)cccc32)CC1` [Example 248, 1-(2′,4′-Dimethoxy-3,4,5,6-tetrahydro-2H-[1,3′]bipyridinyl-4-yl)-4-methoxy-3-(2-trifluoromethyl-benzyl)-1,3-dihydro-benzoimidazol-2-one], the IC50 turned out to be 182 nM.

For `Cc1cccc(F)c1N1CC[C@@H](n2c(=O)n(Cc3ccccc3C(F)(F)F)c3c(N(C)CCO)nccc32)C1` [Example 123, 1-[(R)-1-(2-Fluoro-6-methyl-phenyl)-pyrrolidin-3-yl]-4-[(2-hydroxy-ethyl)-methyl-amino]-3-(2-trifluoromethyl-benzyl)-1,3-dihydro-imidazo[4,5-c]pyridin-2-one], the IC50 was 42 nM.

For `COc1cccc2c1n(Cc1ccccc1C(F)(F)F)c(=O)n2C1CCN(C(=O)OC(C)(C)C)CC1C` (centres unmarked) [Example 146, 4-[4-Methoxy-2-oxo-3-(2-trifluoromethyl-benzyl)-2,3-dihydro-benzoimidazol-1-yl]-3-methyl-piperidine-1-carboxylic acid tert-butyl ester], the IC50 was determined as 201 nM.

`COc1cccc2c1n(Cc1ccccc1C(F)(F)F)c(=O)n2[C@@H]1CCN(c2c(C=O)c(C)nn2C)C1` [Example 71, 5-{(R)-3-[4-Methoxy-2-oxo-3-(2-trifluoromethyl-benzyl)-2,3-dihydro-benzoimidazol-1-yl]-pyrrolidin-1-yl}-1,3-dimethyl-1H-pyrazole-4-carbaldehyde]: the IC50 was found to be 133 nM.

On to `COc1cccc2c1n(Cc1ccccc1OC(C)C)c(=O)n2C1CCN(c2c(C)cccc2F)CC1` [Example 166, 1-[1-(2-Fluoro-6-methyl-phenyl)-piperidin-4-yl]-3-(2-isopropoxy-benzyl)-4-methoxy-1,3-dihydro-benzoimidazol-2-one], for which the IC50 was 17 nM.

As for `COc1cccc2c1n(Cc1ccccc1C(F)(F)F)c(=O)n2[C@@H]1CCN(c2ccccc2OC(F)(F)F)C1` [Example 201, 4-Methoxy-1-[(R)-1-(2-trifluoromethoxy-phenyl)-pyrrolidin-3-yl]-3-(2-trifluoromethyl-benzyl)-1,3-dihydro-benzoimidazol-2-one], the IC50 was determined as 31 nM.

Take `COc1cccc2c1n(Cc1ncccc1C(F)(F)F)c(=O)n2C1CCN(c2c(C)cccc2F)CC1` [Example 216, 1-[1-(2-Fluoro-6-methyl-phenyl)-piperidin-4-yl]-4-methoxy-3-(3-trifluoromethyl-pyridin-2-ylmethyl)-1,3-dihydro-benzoimidazol-2-one]: the IC50 is 12 nM.

For `COc1cccc2c1n(Cc1ccccc1C(F)(F)F)c(=O)n2[C@@H]1CCN(C(=O)OC2(C(F)(F)F)COC2)C1` [Example 86, (R)-3-[4-Methoxy-2-oxo-3-(2-trifluoromethyl-benzyl)-2,3-dihydro-benzoimidazol-1-yl]-pyrrolidine-1-carboxylic acid 3-trifluoromethyl-oxetan-3-yl ester], the IC50 amounted to 229 nM.

For the molecule `COc1cccc2c1n(Cc1ccccc1C(F)(F)F)c(=O)n2[C@@H]1CCN(c2c(F)cccc2CC=O)C1` [Example 126, (3-Fluoro-2-{(R)-3-[4-methoxy-2-oxo-3-(2-trifluoromethyl-benzyl)-2,3-dihydro-benzoimidazol-1-yl]-pyrrolidin-1-yl}-phenyl)-acetaldehyde], the IC50 was found to be 20 nM.

For `COc1cccc2c1n(Cc1ncccc1C(F)(F)F)c(=O)n2[C@@H]1CCN(c2c(C)cccc2F)C1` [Example 202, 1-[(R)-1-(2-Fluoro-6-methyl-phenyl)-pyrrolidin-3-yl]-4-methoxy-3-(3-trifluoromethyl-pyridin-2-ylmethyl)-1,3-dihydro-benzoimidazol-2-one], the IC50 was 2 nM.

On to `COc1cccc2c1n(Cc1cnccc1C(C)C)c(=O)n2[C@@H]1CCN(c2c(C)cccc2F)C1` [Example 180, 1-[(R)-1-(2-Fluoro-6-methyl-phenyl)-pyrrolidin-3-yl]-3-(4-isopropyl-pyridin-3-ylmethyl)-4-methoxy-1,3-dihydro-benzoimidazol-2-one], for which the IC50 worked out at 9 nM.

Take `COc1ncncc1Cn1c(=O)n([C@@H]2CCN(c3c(C)cccc3F)C2)c2cccc(OC)c21` [Example 175, 1-[(R)-1-(2-Fluoro-6-methyl-phenyl)-pyrrolidin-3-yl]-4-methoxy-3-(4-methoxy-pyrimidin-5-ylmethyl)-1,3-dihydro-benzoimidazol-2-one]: the IC50 was determined as 221 nM.

On to `COc1cccc2c1n(Cc1ccccc1C(F)(F)F)c(=O)n2[C@@H]1CCN(c2c(F)cccc2C(C)=O)C1` [Example 90, 1-[(R)-1-(2-Acetyl-6-fluoro-phenyl)-pyrrolidin-3-yl]-4-methoxy-3-(2-trifluoromethyl-benzyl)-1,3-dihydro-benzoimidazol-2-one], for which the IC50 is 38 nM.

For the molecule `COc1ccccc1Cn1c(=O)n([C@@H]2CCN(c3c(C)cccc3C)C2)c2ccnc(OC)c21` [Example 77, 1-[(R)-1-(2,6-Dimethyl-phenyl)-pyrrolidin-3-yl]-4-methoxy-3-(2-methoxy-benzyl)-1,3-dihydro-imidazo[4,5-c]pyridin-2-one], the IC50 is 89 nM.

As for `COc1cccc2c1n(Cc1ccccc1C(F)(F)F)c(=O)n2[C@@H]1CCN(c2c(F)cccc2CN2CC(OC)C2)C1` [Example 143, 1-{(R)-1-[2-Fluoro-6-(3-methoxy-azetidin-1-ylmethyl)-phenyl]-pyrrolidin-3-yl}-4-methoxy-3-(2-trifluoromethyl-benzyl)-1,3-dihydro-benzoimidazol-2-one], the IC50 amounted to 108 nM.

Take `COc1nccc(C)c1N1CCC(n2c(=O)n(Cc3ccccc3C(F)(F)F)c3c(OC)cccc32)CC1` [Example 234, 4-Methoxy-1-(2′-methoxy-4′-methyl-3,4,5,6-tetrahydro-2H-[1,3′]bipyridinyl-4-yl)-3-(2-trifluoromethyl-benzyl)-1,3-dihydro-benzoimidazol-2-one]: the concentration for half-maximal inhibition (IC50) was 17 nM.

For the molecule `COc1cccc2c1n(Cc1nccnc1C(C)C)c(=O)n2C1CCN(c2c(C)cccc2F)CC1` [Example 187, 1-[1-(2-Fluoro-6-methyl-phenyl)-piperidin-4-yl]-3-(3-isopropyl-pyrazin-2-ylmethyl)-4-methoxy-1,3-dihydro-benzoimidazol-2-one], the IC50 was 26 nM.

As to `COc1cccc2c1n([C@@H](C)c1ccccc1C(F)(F)F)c(=O)n2C1CCN(c2c(C)cccc2F)C1` (stereo partly drawn) [Example 219, 1-[1-(2-Fluoro-6-methyl-phenyl)-pyrrolidin-3-yl]-4-methoxy-3-[(S)-1-(2-trifluoromethyl-phenyl)-ethyl]-1,3-dihydro-benzoimidazol-2-one], the IC50 is 34 nM.

For `COc1cccc2c1n(Cc1ccccc1C(F)(F)F)c(=O)n2[C@@H]1CCN(c2c(F)cccc2CN2CCNCC2)C1` [Example 135, 1-[(R)-1-(2-Fluoro-6-piperazin-1-ylmethyl-phenyl)-pyrrolidin-3-yl]-4-methoxy-3-(2-trifluoromethyl-benzyl)-1,3-dihydro-benzoimidazol-2-one], the IC50 is 5760 nM.

Regarding `COc1cc(C)nc2c1n(Cc1ccccc1C(F)(F)F)c(=O)n2[C@@H]1CCN(c2c(C)cccc2F)C1` [Example 171, 3-[(R)-1-(2-Fluoro-6-methyl-phenyl)-pyrrolidin-3-yl]-7-methoxy-5-methyl-1-(2-trifluoromethyl-benzyl)-1,3-dihydro-imidazo[4,5-b]pyridin-2-one], the IC50 amounted to 64 nM.

Consider `COc1cccc2c1n(Cc1ncccc1C(F)(F)F)c(=O)n2C1CCN(C(=O)OC(C)(C)C)CC1` [Example 64, 4-[4-Methoxy-2-oxo-3-(3-trifluoromethyl-pyridin-2-ylmethyl)-2,3-dihydro-benzoimidazol-1-yl]-piperidine-1-carboxylic acid tert-butyl ester], for which the IC50 is 2920 nM.

On to `COc1cccc2c1n(Cc1ccccc1C(F)(F)F)c(=O)n2C1CCN(C(=O)OC(C)(C)C)CC1(C)C` (centres unmarked) [Example 228, 4-[4-Methoxy-2-oxo-3-(2-trifluoromethyl-benzyl)-2,3-dihydro-benzoimidazol-1-yl]-3,3-dimethyl-piperidine-1-carboxylic acid tert-butyl ester], for which the IC50 was found to be 259 nM.
